Experimental data: US6989148B2, “Treatment of diabetes” (priority 1994, dated 2006)
“Also recorded” adds a separate entry of the source.

Experiments:
[1] = tested on: subjects with remission phase Type I diabetes; assay: Sustacal meal with intravenous GLIP infusion 1.2 pm/kg/min (Example 1); type: in vivo, human
Method: 7 subjects with remission phase Type I diabetes were studied after ingestion of a standardised meal of Sustacal (Upjohn) (delivering […]). Subjects continued their normal insulin treatment programme on the day prior to the test and, on the day of the test, omitted their morning insulin injection and arrived fasting at 8:00 am. […] Infusion was continued for 120 minutes. Blood levels of glucose, C-peptide, gastrin, glucagon and HPP were monitored by standard radioimmunoassay methods in samples taken before and at intervals during the study, up to 180 minutes. On another test day, subjects were given the Sustacal meal alone and the same analytes were similarly monitored.

[2] = tested on: subjects with remission phase Type I diabetes; assay: Intravenous glucose infusion with intravenous GLIP (Example 2); type: in vivo, human; conditions: IV GLIP 1.2 pm/kg/min for 60 min along with IV glucose 20 g over 60 min; FIG. 2
Method: Four subjects with remission phase Type I diabetes were studied during intravenous glucose infusion. Subjects prepared for the tests as described in Example 1, but received an intravenous infusion of glucose (20 g over 60 min. constant rate)instead of the Sustacal meal. […] Blood levels of glucose and C-peptide were monitored as in Example 1.

[3] = tested on: subjects with remission phase Type I diabetes; assay: Sustacal meal with infusion of 0.75 pm/kg/min GLIP versus saline (Example 3); type: in vivo, human; conditions: 0.75 pmol/kg/min GLIP along with Sustacal meal, versus saline control; FIG. 3
Method: The test was conducted as described in Example 1 and blood glucose and C-peptide levels were measured. On a further test day, the subjects were studied during saline infusion after a similar Sustacal meal.

normal volunteers = assay: Sustacal meal preceded by subcutaneous GLIP injection in normal volunteers (Example 4); type: in vivo, human; conditions: subcutaneous GLIP (100 μg; b67 prints 1.00 μg) before Sustacal meal
Text: Results are shown in FIG. 4. *indicates statistically significant differences between treatments (p<0.05).

Type I diabetic subjects = assay: Sustacal meal preceded by subcutaneous GLIP injection in Type I diabetics (Example 5); type: in vivo, human; conditions: 100 μg GLIP subcutaneously prior to test meal
Text: 7 Type I diabetic subjects were studied.
The results are shown in FIG. 5. *indicates statistically significant differences between treatments (p<0.05)

Type 1 diabetic subject = assay: GLIP along with insulin before Sustacal meal, post-prandial glycaemia (Example 6); type: in vivo, human; conditions: 50 μg GLIP with 5 units insulin (half the usual dose) subcutaneously before meal; one subject; FIG. 6 Panel A
Method: One Type 1 diabetic subject was given GLIP along with insulin and the effects on post-prandial glycaemia observed. The subject received 5 units of insulin and 50 μg GLIP as subcutaneous injections immediately prior to ingestion of a Sustacal meal as described in Example 1. Blood levels of GLIP were monitored by a standard radioimmunoassay method.

humans and other mammals = conditions: Wettergren et al. (1993); cited from earlier work
Type II diabetics = conditions: Gutniak et al. (1992), WO93/18786; cited from earlier work
[4] = IV infusion 1.2 pm/kg/min after Sustacal meal

Substance: Glucagon-like peptide 1(7-36)amide [GLIP]
- blood levels of C-peptide [1, 4]: prevented a significant increase in blood levels of C-peptide
- plasma glucagon levels stimulated by the meal [1, 4]: prevented the mean rise in plasma glucagon levels
- secretion of pancreatic polypeptide (PP) after meal ([1]; IV infusion 1.2 pm/kg/min after Sustacal meal, FIG. 1 Panel C): this response was absent during GLIP infusion
- gastrin levels / gastrin response ([1]; IV infusion 1.2 pm/kg/min after Sustacal meal, FIG. 1 Panel E): normal gastrin response; also recorded: not significantly affected
- blood glucose level after a meal ([1]; IV infusion 1.2 pm/kg/min for 120 min after Sustacal meal, FIG. 1 Panel A): excellent control of blood glucose level
- blood glucose level [2]: improved control of blood glucose level
- secretion of endogenous insulin [2]: stimulated secretion of endogenous insulin
- increase in blood glucose [3]: increase in glucose was less than in the control experiment
- rise in C-peptide [3]: rise in C-peptide was similar to the control experiment
- increase in blood levels of C-peptide (normal volunteers): delay in increase
- increase in blood levels of HPP (normal volunteers): delay in increase
- increase in blood levels of glucose (normal volunteers): delay in increase
- increase in blood levels of insulin (normal volunteers): delay in increase
- blood glucose levels compared to control (Type I diabetic subjects; no morning insulin, FIG. 5 Panel A): lowering of blood glucose levels
- pancreatic polypeptide (HPP) levels (Type I diabetic subjects; FIG. 5 Panel D): delayed rise in pancreatic polypeptide (HPP) levels
- insulin secretion over control levels (Type I diabetic subjects; FIG. 5 Panels B and C): no enhancement of insulin secretion over control levels
- blood glucose after Sustacal meal (maximum) (Type 1 diabetic subject): ≤ 8 mM
- gastric emptying (humans and other mammals): delay of gastric emptying
- effect of combination with oral hypoglycaemic agents (Type II diabetics): synergistic effect
